Entries after “also recorded” stand apart in the source; their conditions may differ.
Tests used:
LDH = conditions: SU2 rats, NP treatment, lung tissue
Description: Female Sprague Dawley rats (200-250 g) obtained from Charles River (Wilmington, Mass., USA) were used in this study. […] Generally, PAH was induced by a single injection of SU5416 (50 mg/kg) subcutaneously, followed by 3 weeks of hypoxia (10% 02) and 2 weeks of normoxia. This study included five animal groups: control group; SU1, rats were analyzed after 1 week of SU5416 and hypoxia treatment; SU2, rats were analyzed after 2 weeks of SU5416 and hypoxia treatment; SUS, rats were analyzed after 5 weeks of SU5416 treatment (3 weeks of hypoxia with a following 2 weeks of normoxia); and SU2+NP peptide treatment 0.1 mg/kg/day intravenous (i.v.) injection started with SU5416 treatment for two-weeks.
LDH activity in lung tissue was assessed by Lactate Dehydrogenase Activity Colorimetric Assay Kit (K726, BioVision Inc. Calif., USA) according to manufacturer's instruction. All values were normalized with respect to protein concentrations as determined by the Pierce™ BCA Protein Assay Kit (Thermo Scientific, Rockford, Ill.).

sugen/hypoxia PAH model [1] = assay: Metabolic intermediates analysis of lung lysate (PCA); type: in vivo, rat; conditions: SU2+NP versus SU2
Description: Data were acquired using the West Coast Metabolomics Center at UC Davis. Briefly, Restek corporation Rtx-5Sil MS column was used with helium mobile phase at temperature interval (50-330° C.) and flow-rate: 1 mL min-1. Injection volume was 0.5 μL at 50° C. ramped to 250° C. by 12° C. s-1. Oven temperature started at 50° C. for 1 min, then ramped at 20° C. min-1 to 330° C., and held constant for 5 min. Mass spectrometry analysis was done on a Leco Pegasus IV mass spectrometer with unit mass resolution at 17 spectra s-1 from 80-500 Da at −70 eV ionization energy and 1800 V detector voltage with a 230° C. transfer line and a 250° C. ion source. Raw data files were preprocessed directly after data acquisition and stored as ChromaTOF-specific*.peg files, as generic*.txt result files and additionally as generic ANDI MS*.cdf files. ChromaTOF vs. 2.32 was used for data preprocessing without smoothing, 3s peak width, baseline subtraction just above the noise level, and automatic mass spectral deconvolution and peak detection at signal/noise levels of 5:1 throughout the chromatogram. Apex masses were reported for use in the BinBase algorithm. Result*.txt files were exported to a data server with absolute spectra intensities and further processed by a filtering algorithm implemented in the metabolomics BinBase database.

PDH = assay: Pyruvate dehydrogenase assay in lung tissue; type: in vivo, rat; conditions: SU2 rats, NP treatment
Description: Lung tissue was lysed using RIPA buffer and the lysate was used for the PDH activity. PDH activity was measured with PDH Activity Assay Kit (MAK183, Sigma-Aldrich) per the manufacturer protocol.

sugen/hypoxia PAH model [2] = assay: Hemodynamic measurement (RVSP, Fulton index), sugen/hypoxia PAH model; type: in vivo, rat; conditions: SU2 rats, NP 0.1 mg/kg/day i.v. two-weeks
Description: Animals were anesthetized with inactin 100 mg/kg intraperitoneally (i.p.) (T133, Sigma-Aldrich). A customized pressure transducer catheter (SPR-513, Millar Instruments, Houston, Tex.) was inserted into RV via the right jugular vein and advanced into the right ventricle to monitor right ventricular systolic pressure (RVSP) as described previously. Briefly, the pressure transducer catheter was connected to a Millar Transducer Control Unit TC-510 and PL3504 PowerLab 4/35 data acquisition system (AD Instruments, Colorado Springs, Colo.) to monitor RV pressure for 30-min. After this a tracheal catheter was connected to a ventilator system (Harvard Rodent Ventilator-683; Harvard Apparatus, South Natick, Mass.), the thorax was opened, and the lungs flushed with 0.9% sodium chloride through the right ventricle (RV). Heart and lungs were collected from animals; the RV free wall was separated from the left ventricle (LV), and the septum (5). Fulton index (RV/LV+S ratio) as a parameter of RV hypertrophy was calculated. The total wet lung weight was measured and normalized by the body weight of the animal. The left lung was fixed in formalin and embedded in paraffin for histological examination. The other portion of the lung was stored at −80° C. for further biochemical studies.

Akt [3] = assay: Western blot of Akt nitration, phosphorylation and total nitration in lung lysate, sugen/hypoxia PAH model; type: in vivo, rat; conditions: SU2 rats, NP 0.1 mg/kg/day i.v. two-weeks
Description: (§1) For an analysis of the total lung protein, lung tissues were lysed as previously described. Briefly, 20-40 mg of lung tissue (human/rat) was lysed in Permeabilization Buffer mixed with protease and phosphatase inhibitor cocktails using a Fisher Homogenizer 850. The homogenate was centrifuged at 10,000 g for 10 min, and the supernatant was carefully collected. Cell membrane and cytosolic fractions were isolated using FractionPREP™ cell fraction kit (Biovision, Milpitas, Calif.) according to manufacturer's instruction. The protein concentration was measured using the BCA protein assay kit (Thermo Scientific, Rockford, Ill.). Samples were incubated with 6×Laemmli sample buffer (Boston Bioproducts Inc., Ashland, Mass.), for 5 min at 95° C., loaded on the 4-20% SDS-PAGE Mini-PROTEAN TGX Stain-Free™ gels (Bio-Rad Laboratories Inc., Hercules, Calif.) and separated by electrophoresis. Protein bands were transferred using Trans-Blot Turbo transferring system (Bio-Rad Laboratories Inc.) and then blocked with 5% bovine serum albumin in Tris-buffered saline. Membranes were probed using antibodies against Glut 4 (07-1404) from Millipore, pyruvate carboxylase (PC) (Ab229267) & peroxisome proliferator-activated receptor gamma coactivator 1-alpha (PGC-1α) (Ab191838) from Abcam, pyruvate dehydrogenase (PDH) (45-6600) from Invitrogen, phospho Akt (Ser 473) (4060S), Akt (9272S), hexokinase 1 (HK1) (C35C4), glyceraldehyde-3 phosphate dehydrogenase (GAPDH) (2118S), lactate dehydrogenase-A (LDHA) (2012S), phospho glycogen synthase kinase (GSK) 3 β (Ser9) (9336S), GSK3 β(9315S) and glucose 6-phosphate dehydrogenase (G6PD) (8866S) from Cell Signaling Technology. Mouse monoclonal anti-nitrotyrosine antibodies were obtained from Calbiochem, La Jolla, Calif. (487923). Akt Y350 NO2 antibody obtained as a custom-made antibody against Akt1-nitro (341-353) and the sequence was CGRLPF-nitroY-NQDHEK (SEQ ID NO: 2). Two peptides were developed with and without Y350 nitration. The antibody developed against nitrated peptide cleaned using non-nitrated peptide (Akt1 (341-353): […], SEQ ID NO: 3) to remove nonspecific antibodies. […] Since the quantification of the Akt nitration is not fully established by mass spectrometry, a common method was used by newly developed antibodies for the quantification of specific Y350 nitration of Akt. The reactive bands were visualized by chemiluminescent ChemiDoc™ MP Imaging System (Bio-Rad Laboratories Inc., Hercules, Calif.) and analyzed using Image Lab™ software. […] This normalization is equal to housekeeping genes normalization and rigorously evaluated by Bio-Rad company (http://www.bio-rad.com/en-us/applications-technologies/stain-free-imaging-technology?ID=NZ0G1815) and others in comparison with beta-actin normalization.

Akt [4] = target: T1, Akt (Rattus norvegicus, UniProt P47196); assay: as above; type: in vivo; conditions: sugen/hypoxia rats two-weeks (SU2), NP 0.1 mg/kg/day i.v.
T1 construct: nitro Akt, phospho Akt and total Akt expression in the lung lysate; from tissue; host or cells: rat lung (Sprague Dawley, sugen/hypoxia model)
T1 sequence (P47196 whole entry): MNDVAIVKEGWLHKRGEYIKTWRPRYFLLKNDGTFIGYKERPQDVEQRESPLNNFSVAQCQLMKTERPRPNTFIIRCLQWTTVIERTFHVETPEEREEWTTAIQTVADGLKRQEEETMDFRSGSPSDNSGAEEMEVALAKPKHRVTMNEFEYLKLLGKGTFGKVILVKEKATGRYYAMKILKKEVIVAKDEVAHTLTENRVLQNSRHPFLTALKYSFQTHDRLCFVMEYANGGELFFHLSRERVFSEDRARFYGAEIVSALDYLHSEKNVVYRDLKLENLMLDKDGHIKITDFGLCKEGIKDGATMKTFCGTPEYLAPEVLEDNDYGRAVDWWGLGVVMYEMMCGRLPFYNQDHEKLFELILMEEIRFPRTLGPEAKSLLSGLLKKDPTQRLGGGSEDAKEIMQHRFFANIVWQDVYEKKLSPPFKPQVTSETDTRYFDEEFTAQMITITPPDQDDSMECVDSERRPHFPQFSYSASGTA
Description: as §1

HPASMCs [5] = assay: Seahorse mitostress assay (OCR); type: cell-based, human; conditions: SIN-1 treatment
Description: (§2) For the glycostress Seahorse assay, human pulmonary artery smooth muscle cells (HPASMCs) were seeded in a 24 well Seahorse cell culture microplate at 50000/well and kept overnight to form a monolayer. On the day of experiment, the media was aspirated and cells were incubated at 37° C. in a non-CO2 incubator for 1 hour with 0.5 mL XF base medium (cat #102353-100, Agilent, Santa Clara, Calif.) supplemented with 2 mM glutamine. Glucose (56 μL, 100 mM), Oligomycin (62 μL, 100 μM) and 2-deoxyglucose (69 μL, 500 mM) was added to the flux pack wells (cat #102342-100, Agilent, Santa Clara, Calif.). ECAR (extracellular acidification rate) was then measured using Seahorse Bioscience XFe24 extracellular flux analyzer (Agilent, Santa Clara, Calif.) according to the manufacturer's protocol. For the mitostress assay, cells were prepared like the glycostress assay with the exception that the XF base incubation media was supplemented with pyruvate (1 mM), glutamine (2 mM) and glucose (10 mM). Oligomycin (56 μL, 10 μM), FCCP (62 μL, 10 μM) and Rotenone+Antimycin-A (69 μL, 5 μM) were added to the flux pack wells. OCR (oxygen consumption rate) was then identified according to the manufacturer's protocol. Data was normalized to cell number as determined by flow cytometry. All the chemicals used for these experiments, unless specified, were procured from Sigma-Aldrich.

HPASMCs [6] = assay: Seahorse glycostress assay (ECAR); type: cell-based, human; conditions: SIN-1 treatment
Description: as §2

sugen/hypoxia PAH model [7] = assay: Histological analysis of pulmonary arteries (EVG, Ki-67), sugen/hypoxia PAH model; type: in vivo, rat; conditions: SU2 rats, NP 0.1 mg/kg/day i.v. two-weeks
Text: For the morphometric assessment of pulmonary vessels 5-μm tissue sections were dewaxed and stained with elastic fibers—Verhoeffs van gieson (EVG) by HistoWiz Inc. (Brooklyn, N.Y.) using standard operating procedures and a fully automated workflow system. Ten transversely sectioned pulmonary arteries (diameter<300 μm) within each category per each animal (N=6 per group) were randomly selected from the whole-slide 40X digitized image Aperio AT2 scanner (Leica Biosystems, Ill.). Immunohistochemistry was performed using standard protocols. The sections were deparaffinized and incubated with primary antibodies against Akt Y350 NO2 (1:100), and Ki67 (1:800) (ab15580 Abcam); Dab Rabbit H1 (pH 6) for 20 min. The morphometric analysis was done by an investigator by a blinded grouping fashion. The wall thickness of the pulmonary artery (PA) was measured using the publicly available software Fiji is just ImageJ (http://fiji.sc/Fiji; in the public domain).

Akt (Y350 nitration) = target: T2, Akt (Y350 nitration) (Homo sapiens, UniProt P31749); assay: Sin-1 induced Akt nitration assay in HPAECs; type: cell-based; conditions: 1 μM NP pretreatment 30 min, washed, then SIN-1 1 mM 1 hour
T2 construct: endogenous in cells; host or cells: HPAEC (human pulmonary artery endothelial cells)
T2 sequence (P31749 whole entry): as the sequence (P47196 whole entry) above, with N2S, E46D, S50A, R112K, T117E, A137S, T389K, N410G, D415H counted along it
Description: Human pulmonary artery endothelial cells (HPAECs) were cultured using an endothelium media specific for HPAEC with 10% FBS. Cells were used from passages 3-6. All experiments were performed on 80-90% confluent cells. Akt nitration was induced by treatment with 3-Morpholinosyndnomine (SIN-1) (1 mM) for 1 hour. NP pretreatment groups were treated with 1 μM NP for 30 min, and then cells were washed in PBS and treated with SIN-1 for 1 hour. All treatments were accompanied by including controls with the corresponding vehicle. After treatment, the cells were washed in PBS and lysed in a RIPA buffer containing protease and phosphatase inhibitor cocktail.
For an analysis of the total lung protein, lung tissues were lysed as previously described. Briefly, 20-40 mg of lung tissue (human/rat) was lysed in Permeabilization Buffer mixed with protease and phosphatase inhibitor cocktails using a Fisher Homogenizer 850. […] The protein concentration was measured using the BCA protein assay kit (Thermo Scientific, Rockford, Ill.). […] Since the quantification of the Akt nitration is not fully established by mass spectrometry, a common method was used by newly developed antibodies for the quantification of specific Y350 nitration of Akt. The reactive bands were visualized by chemiluminescent ChemiDoc™ MP Imaging System (Bio-Rad Laboratories Inc., Hercules, Calif.) and analyzed using Image Lab™ software. […]

sugen/hypoxia PAH model [8] = assay: Western blot of metabolic proteins in lung tissue, sugen/hypoxia PAH model; type: in vivo, rat; conditions: SU2 rats
Description: For an analysis of the total lung protein, lung tissues were lysed as previously described. Briefly, 20-40 mg of lung tissue (human/rat) was lysed in Permeabilization Buffer mixed with protease and phosphatase inhibitor cocktails using a Fisher Homogenizer 850. The homogenate was centrifuged at 10,000 g for 10 min, and the supernatant was carefully collected. Cell membrane and cytosolic fractions were isolated using FractionPREP™ cell fraction kit (Biovision, Milpitas, Calif.) according to manufacturer's instruction. The protein concentration was measured using the BCA protein assay kit (Thermo Scientific, Rockford, Ill.). Samples were incubated with 6×Laemmli sample buffer (Boston Bioproducts Inc., Ashland, Mass.), for 5 min at 95° C., loaded on the 4-20% SDS-PAGE Mini-PROTEAN TGX Stain-Free™ gels (Bio-Rad Laboratories Inc., Hercules, Calif.) and separated by electrophoresis. Protein bands were transferred using Trans-Blot Turbo transferring system (Bio-Rad Laboratories Inc.) and then blocked with 5% bovine serum albumin in Tris-buffered saline. Membranes were probed using antibodies against Glut 4 (07-1404) from Millipore, pyruvate carboxylase (PC) (Ab229267) & peroxisome proliferator-activated receptor gamma coactivator 1-alpha (PGC-1α) (Ab191838) from Abcam, pyruvate dehydrogenase (PDH) (45-6600) from Invitrogen, phospho Akt (Ser 473) (4060S), Akt (9272S), hexokinase 1 (HK1) (C35C4), glyceraldehyde-3 phosphate dehydrogenase (GAPDH) (2118S), lactate dehydrogenase-A (LDHA) (2012S), phospho glycogen synthase kinase (GSK) 3 β (Ser9) (9336S), GSK3 β(9315S) and glucose 6-phosphate dehydrogenase (G6PD) (8866S) from Cell Signaling Technology. Mouse monoclonal anti-nitrotyrosine antibodies were obtained from Calbiochem, La Jolla, Calif. (487923). Akt Y350 NO2 antibody obtained as a custom-made antibody against Akt1-nitro (341-353) and the sequence was CGRLPF-nitroY-NQDHEK (SEQ ID NO: 2). Two peptides were developed with and without Y350 nitration. The antibody developed against nitrated peptide cleaned using non-nitrated peptide (Akt1 (341-353): […], SEQ ID NO: 3) to remove nonspecific antibodies. Affinity purification was done using large reusable affinity purification columns against the unmodified and nitrated peptides. […] Since the quantification of the Akt nitration is not fully established by mass spectrometry, a common method was used by newly developed antibodies for the quantification of specific Y350 nitration of Akt. The reactive bands were visualized by chemiluminescent ChemiDoc™ MP Imaging System (Bio-Rad Laboratories Inc., Hercules, Calif.) and analyzed using Image Lab™ software. The protein loading was normalized per total sample protein as fold control using stain free gels as previously described. This normalization is equal to housekeeping genes normalization and rigorously evaluated by Bio-Rad company (http://www.bio-rad.com/en-us/applications-technologies/stain-free-imaging-technology?ID=NZ0G1815) and others in comparison with beta-actin normalization.

NP: peptide Ser-Arg-IIe-Arg-Ser (SEQ ID NO: 1) with nitroxide (3-Carboxy-2,2,5,5-tetramethyl pyrroline-1-yloxy) covalently attached to the free N-terminal amine
LDHA activity (LDH): attenuating
metabolites significantly restored by treatment (sugen/hypoxia PAH model [1]): 30 metabolites
PDH activity (PDH): increased
Fulton index (RV/LV+S), RV hypertrophy (sugen/hypoxia PAH model [2]): markedly decreased; also recorded: reversed
right ventricular systolic pressure (RVSP) (sugen/hypoxia PAH model [2]; SU2 without NP 71.9±3.6, p<0.001): 36.1±2.6
Phosphorylation of Akt at Ser-473 (Akt [3]; lung lysate): does not affect
total Akt expression (Akt [3]; lung lysate): did not change
total nitration in lungs (Akt [3]; selectivity toward Akt nitration): did not significantly alter
nitroAkt modification in the lung tissue (Akt [4]): significantly reduced; also recorded: remarkable reduction
basal respiration rate (HPASMCs [5]): without affecting
mitochondrial oxidative phosphorylation rate (OCR) (HPASMCs [5]): upregulated the oxidative phosphorylation rate to control level
Glycolytic capacity (HPASMCs [6]): attenuated
glycolysis (glycolytic rate, ECAR) (HPASMCs [6]): attenuated this back to control level
EVG staining: perivascular fibrosis, vasoconstriction and proliferation in pulmonary arteries (sugen/hypoxia PAH model [7]): significantly attenuated
vascular remodeling and cellular proliferation (Ki-67 staining) (sugen/hypoxia PAH model [7]): effectively prevented
reduction of Akt nitration (Y350) (Akt (Y350 nitration)): 55%
pyruvate carboxylase (PC) expression (sugen/hypoxia PAH model [8]; NP 0.1 mg/kg/day i.v. two-weeks): decreased
G6PD expression (sugen/hypoxia PAH model [8]; NP treatment): upregulated significantly
GSK3β expression (sugen/hypoxia PAH model [8]; NP treatment): reversed
Glut4 translocation to membrane (membrane/cytosol ratio) (sugen/hypoxia PAH model [8]; NP treatment): attenuated
LDHA expression (sugen/hypoxia PAH model [8]; NP treatment): attenuating
PDH expression (sugen/hypoxia PAH model [8]; NP treatment): significantly increased
PGC1α expression (sugen/hypoxia PAH model [8]; NP treatment): significantly reduced

From US20230073946A1, “AFFINITY PEPTIDE […] A[…] PROTECTION OF PROTEINS FROM OXIDATION” (ARIZONA BOARD OF REGENTS ON BEHALF OF THE UNIVERSITY OF …, priority 2020, published 2023)
